# In US20210163451A1, “METHODS AND COMPOSITIONS FOR SUBSTITUTED 2,5-DIKETOPIPERAZINE ANALOGS” (University of Florida Research Foundation, Inc., priority 2018, published 2021):
# Marks after values point to notes of the source that are not given here.
# Key:
# TxtA = TxtA substrate scope in TxtA/TxtB reactions; assay type: biochemical, S. scabies 87.22
# Procedure: To explore whether TxtA/B are versatile to generate a library of thaxtomin D analogs, enzymes' substrate tolerance was then examined in the reactions. […] Subsequently, the substrate scope of TxtA with 17 I-Phe analogs was assessed with various substituents at α-position or C2, C3, and C4 of the aryl group (Table 1).
# (§1) TxtA/B reaction: 100 mM Tris-Cl (PH=8.0), 0.5 mM Nitro-L-tryptophan or L-tryptophan, 0.55 mM L-Phenylalanine, 3.2 μM txtA, 14.5 μM txtB, 2.5 mM ATP and 2 mM SAM in 100 μL reaction. 21° C. shaken with 400 rpm for 20 hours.
# (§2) TB14 and txtA/B coupling reaction: 100 mM Tris-Cl (PH=8.0), 0.5 mM L-tryptophan, 0.55 mM L-Phenylalanine, 1.5 mM NAPDH, 0.75 mM NOC-5, 3.2 μM txtA, 14.5 μM txtB, 2.5 mM ATP, 2 mM SAM and 11.1 μM TB14 in 100 μL reaction. Opened to air, 21° C. shaken with 400 rpm for 30 hours.
# (§3) To probe the basis of chemical diversity of Thx DKP scaffold, next characterized was the substrate scopes of TxtA and TxtB. […] Chem. Int. Ed. Engl. […] The substrate preference of TxtB was then assessed. […] Chem. Int. Ed. Engl. 2018 57:6830-6833]. […] Chem. Biol. 2018 14: 428-430].
# (§4) The TxtA/B reaction solutions (100 μl) typically contained 100 mM Tris-Cl, pH 9.0, 0.5 mM amino acid substrates, 10 mM MgCl2, 2.5 mM ATP and 2 mM SAM. The reactions were initiated by adding 1.2 μM TxtA and 1.3 μM TxtB (final concentration) and incubated at 21° C. with shaking at 400 rpm. After 30 h, the reactions were terminated by mixing with 200 μl of methanol. Quenched solutions were centrifuged at 4° C., 16,000×g for 15 min and clear supernatants were collected and subjected to HPLC and LCMS analysis as detailed below. All experiments were repeated independently at least twice. The reaction solutions of TB14 and TxtA and TxtB were the same as those of TxtA and TxtB except the inclusion of 1.5 mM NAPDH, 0.75 mM NOC-5 and 11.1 μM TB14. The reactions were run for 30 h and the products were analyzed and quantitated as described above.
# radish seedlings = assay: Herbicidal activity in radish seedling assay; assay type: in vivo; conditions: total seedling length after 7 days on agar, 0 to 2 μM, mean±SD (n=4)
# Procedure: Established protocols were followed to quantitate thaxtomin herbicidal activity in radish seedling assay (Jiang, G. et al. Appl Environ Microbiol 2018 84:e00164-18). In brief, serial concentrations (0 to 2 μM) of thaxtomins in DMSO were added into 20 mL of 1.5% warm agar solution with gentle agitation to prepare agar plates. DMSO was included as the negative control. Radish seeds (Burpee) were surface disinfested, pregerminated and selected when the radicle was […] and just emerged from the seed coat. Six radish seedlings were equally located on the surface of each plate with root ends pointed to the same direction. Agar plates were covered, sealed with Parafilm. Seedlings in agar plates grew at room temperature under 14-16 h fluorescent light per day for 7 days, and total seedling lengths were then recorded. The longest and the shorted seedlings would be excluded from the data analysis. Percent inhibition relative to the mean growth response in negative control was then calculated. Dose-response curves were fit to a four-parameter logistic model, and I50 values were determined from these curves.
# TxtB = TxtB substrate scope in TxtA/TxtB reactions; assay type: biochemical, S. scabies 87.22; parameters: key to TxtB substrate: +++++: Five ‘+’ represents the strong reactivity; ++++: The number of ‘+’ represents the reactivities of the enzymes to the substrate; +++: The number of ‘+’ represents the reactivities of the enzymes to the substrate; ++: The number of ‘+’ represents the reactivities of the enzymes to the substrate; +: one represent very weak reactivities
# Procedure: Using the above strategy, it was determined that TxtB accepted only I-Trp among all 20 natural amino acids in the reaction (FIG. 2B, Table 1). When incubating with 15 I-Trp analogs with various substituents at α-position or C4, C5, C6 and C7 of I-Trp indole (Table 1), TxtB was able to use 4-F, 4-Me, 5-F, and 6-F-tryptophan as substrates in the DKP synthesis (Table 1). […] Indeed, the Micklefield group recently produced several thaxtomin analogs with C4-H, F, Cl, Br, or Me when expressing txtA/B in S. albus. The advanced understanding of substrate scopes of TxtA/B led to enzymatic creation of a library of 30 DKPs with 5 I-Trp analogs and 6 I-Phe analogs (FIG. 3C). The production of all DKPs were confirmed in HPLC analysis and verified in high resolution LC-MS analysis (Table 2).
# as §1
# To probe the basis of chemical diversity of Thx DKP scaffold, next characterized was the substrate scopes of TxtA and TxtB. […] Bulkier aryl substituents decreased enzyme activity. […] From the modelled structure of TxtA adenylation (A) domain (FIG. 23), it was identified that Trp225 likely controls the binding of bulky L-Phe analogues. Indeed, the TxtA W225S mutant [Kries, H. et al. Angew. Chem. Int. Ed. Engl. […] We confirmed the product as p-azido-Thx D by HRMS, MS/MS, 1D and 2D NMR analysis (FIGS. 24-25). The substrate preference of TxtB was then assessed. […] Additionally, TxtB utilized 4F-L-, 5F-L-, 4Me-D,L- and 6F-D,L-Trp out of 15 L-Trp analogues carrying various substituents (Table 7) as substrates to synthesize desnitro dimethylated DKP analogues (FIG. 22). […] The tolerance to small modifications on L-Trp indole by TxtB agreed with a recent in vivo study by the Micklefield group [Winn, M. et al. Angew. Chem. Int. Ed. Engl. 2018 57:6830-6833]. […] Chem. Biol. 2018 14: 428-430].
# as §4
# [1] = test system: TB14, TCB14, TxtA and TxtB; assay: Conversion to thaxtomin A analogues in the reactions of TB14, TCB14, TxtA and TxtB; assay type: biochemical; conditions: thaxtomin A analogue product from the listed L-Phe and L-Trp analogues
# TxtA-W225S = TxtA-W225S mutant substrate scope in TxtA/TxtB reactions; assay type: biochemical, S. scabies 87.22; conditions: for TxtA-W225S substrate: Table 1, Example 1
# Procedure: The nitro group of thaxtomins is essential for herbicidal activity, and is installed by TxtE. […] NADPH, NOC-5 as NO donor and SAM were included in the reaction. […] To further expand the substrate scope of TxtA, Trp225 was mutated into Ser in TxtA.
# as §1, §2, §3, §4
# TB14, TxtA and TxtB = assay: Conversion to nitro-DKPs in the reactions of TB14, TxtA and TxtB; assay type: biochemical; conditions: nitro-DKP product from the listed L-Phe and L-Trp analogues
smiles,measurement,setting,value
N[C@@H](Cc1ccc(F)cc1)C(=O)O [4F-L-phenylalanine],"relative activity of TxtA toward substrate, relative to L-Phe","TxtA; Example 1, TxtA/B reaction with 4-NO2-L-Trp as TxtB substrate",~72%
same,TxtA substrate,"TxtA; Table 1, Example 1",+++
same,TxtA substrate,"TxtA; Table 7, Example 2",++
Cc1ccc(C[C@H](N)C(=O)O)cc1 [4Me-L-phenylalanine],TxtA substrate,"TxtA; Table 1, Example 1",+++
same,TxtA substrate,"TxtA; Table 7, Example 2",+
"Cc1ccc(C[C@@]2(O)C(=O)N(C)[C@@H](Cc3c[nH]c4cccc([N+](=O)[O-])c34)C(=O)N2C)cc1O [4′Me-Thx A, 4′Me-thaxtomin A]",IC50,"radish seedlings; Raphanus sativus, 168 h",410 ± 10 nM
"Cc1ccc(C[C@H]2C(=O)N(C)[C@@H](Cc3c[nH]c4cccc([N+](=O)[O-])c34)C(=O)N2C)cc1 [4′Me-Thx D, 4′Me-thaxtomin D]",IC50,"radish seedlings; Raphanus sativus, 168 h",480 ± 40 nM
"N[C@@H](Cc1c[nH]c2ccc(F)cc12)C(=O)O [5F-Tryptophan, 5F-L-tryptophan]",TxtB substrate,"TxtB; Table 1, Example 1",++
same,TxtB substrate,"TxtB; Table 7, Example 2",++
"CN1C(=O)[C@](O)(Cc2cccc(O)c2)N(C)C(=O)[C@@H]1Cc1c[nH]c2cccc([N+](=O)[O-])c12 [Compound 1, thaxtomin A, reference compound]",IC50,radish seedlings,390 ± 30 nM
same,Conversion rate %,[1],6.84%
N[C@@H](Cc1ccccc1)C(=O)O [L-phenylalanine],TxtA substrate,"TxtA; Table 1, Example 1",+++++^a
same,TxtA substrate,"TxtA; Table 7, Example 2",+++++
same,TxtA-W225S substrate,TxtA-W225S,+
same,TxtAW225S substrate,"TxtA-W225S; Table 7, Example 2",+
N[C@@H](Cc1c[nH]c2ccccc12)C(=O)O [L-tryptophan],"TxtB activity, times less active than 4-NO2-L-Trp","TxtB; Example 2, reaction without TB14",12 times
same,TxtB substrate,"TxtB; Table 1, Example 1",+
same,TxtB substrate,"TxtB; Table 7, Example 2",+
N[C@@H](Cc1ccc(O)cc1)C(=O)O [L-tyrosine],substrate preference of TxtAW225S mutant,TxtA-W225S; Example 1,lower activity
same,TxtA-W225S substrate,TxtA-W225S,++
CN1C(=O)[C@H](Cc2c[nH]c3cccc([N+](=O)[O-])c23)N(C)C(=O)[C@@H]1Cc1ccc(N=[N+]=[N-])cc1 [compound 42],Conversion rate %,TxtA-W225S; catalyzed by TxtB and TxtAW225S (with TB14),20.90%
Cc1ccc(C[C@H]2C(=O)N(C)[C@@H](Cc3c[nH]c4cccc([N+](=O)[O-])c34)C(=O)N2C)cc1 [compound 54],Conversion rate %,"TB14, TxtA and TxtB",15.69%
Cc1ccc(C[C@@]2(O)C(=O)N(C)[C@@H](Cc3c[nH]c4cccc([N+](=O)[O-])c34)C(=O)N2C)cc1O [compound 118],Conversion rate %,[1],3.98%
Cc1cccc2[nH]cc(CC3C(=O)N(C)C(Cc4ccccc4)C(=O)N3C)c12 (stereo not shown) [desnitro-4Me-Thx D],IC50,radish seedlings,1980 ± 20 nM
"CN1C(=O)[C@H](Cc2c[nH]c3cccc([N+](=O)[O-])c23)N(C)C(=O)[C@@H]1Cc1ccc(N=[N+]=[N-])cc1 [p-N3-Thx D, p-N3-thaxtomin D]",IC50,"radish seedlings; Raphanus sativus, 168 h",1290 ± 210 nM
